Experimental data as given in patent publication US20250188033A1, “INHIBITOR OF REPLICATION PROTEIN A1 OF TRYPANOSOMA BRUCEI AND METHOD OF USE THEREOF” (Research Foundation of the City University of New York, published 2025).

Tested on: Trypanosoma brucei
Test: ALAMARBLUE cell viability / growth assay of T. brucei cells
Assay type: cell-based
Settings: T. brucei, 72 hours, normalized to DMSO control
Protocol: To determine cell growth rate, WT and two TbRPA1 RNAi KD strains (KD1 and KD2) were seeded at a density of 1×10^5 cells/ml and cultured with or without tetracycline for the induction of RNAi. Cells were counted every 12 hours for 2 days. To determine the viability of TbRPA1-depleted cells, ALAMARBLUE® assay (Thermo Fisher, an established colorimetric technique that detects metabolically active cells) was used. Cells from each time point were incubated with ALAMARBLUE® dye for 4-6 hours and percentage of live cells was determined by measuring resorufin converted from resazurin by reducing environment of live cells. Synergy H1 microplate reader (BioTek) was used with 560/590 nm (excitation/emission) filter settings and Relative Fluorescence Unit (RFU) values were obtained. The percentage of viable cells were calculated from the RFU values.
The initial assessment of JC-229's inhibitory effect on T. brucei cell growth was performed at 50 μM concentration. Trypanosome cells were seeded at 1×10^3 cells/ml density in 180 μl in a 96-well culture plate in triplicate. These cells were incubated with 50 μM JC-229 for 24, 48, and 72 hours. DMSO was used as a vehicle control at 0.0075%. JC-229-treated culture and control cultures were analyzed with the ALAMARBLUE® dye as described above.
To obtain the EC50 value of JC-229, T. brucei cells were seeded at 1×10^3 cells/ml density in 180 μl in a 96-well culture plate in triplicate. These cells were incubated for 72 hours with increasing concentrations of JC-229, (0.5 μM to 50 μM) and cell viability was determined using the ALAMARBLUE® dye as described above.
Trypanosoma brucei cytotoxicity of JC-229 and analogs were measured using ALAMARBLUE® assay (Rampersad, S. N. Multiple applications of ALAMARBLUE® as an indicator of metabolic function and cellular health in cell viability bioassays. Sensors (Basel) 12, 12347-12360 (2012). Trypanosome cells were seeded at 1×10^3 cells/ml density in 180 μl in a 96-well culture plate in triplicate. These cells were incubated with indicated concentration of JC compounds for 72 hours. DMSO was used as a vehicle control at 0.0075%. JC compound-treated cultures were then incubated with ALAMARBLUE® dye for 4-6 hours and percentage of live cells was determined using Synergy H1 microplate reader (BioTek) with 560/590 nm (excitation/emission) filter settings and Relative Fluorescence Unit (RFU) values were obtained. The percentage of viable cells were calculated from the RFU values by normalizing to DMSO treated control. In one embodiment, the inhibitor is characterized in that it provides at least 50%, at least 80% or at least 90% inhibition at a concentration of 5 μM when tested in accordance with the above conditions.

Row | Compound | % Inhibition @2 μM [%] | % Inhibition @10 μM [%] | % Inhibition @5 μM [%]
1 | Cc1ccc(C(=O)Nc2ccc(Cl)c(Cl)c2)cc1S(=O)(=O)NCCCCCO [JC-897] | 0 | 36 | –
2 | Cc1ccc(C(=O)Nc2ccc(Cl)c(Cl)c2)cc1S(=O)(=O)N1CCOCC1 [JC-885] | 13 | 38 | –
3 | Cc1ccc(C(=O)Nc2ccc(Cl)c(Cl)c2)cc1S(=O)(=O)Nc1ccc(C#N)cc1N [JC-889] | −3 | −11 | –
4 | Cc1ccc(C(=O)Nc2ccc(Cl)c(Cl)c2)cc1S(=O)(=O)N1CCCC(N)C1.O=C(O)C(F)(F)F (centres unmarked) [JC-929] | 5 | 100 | 99.7
5 | CC(=O)c1ccc(NS(=O)(=O)c2cc(C(=O)Nc3ccc(Cl)c(Cl)c3)ccc2C)cc1 [JC-909] | 15 | 17 | –
6 | Cc1ccc(C(=O)Nc2ccc(Cl)c(Cl)c2)cc1S(=O)(=O)C1CCC(NC(=O)c2ccccc2)CC1 (centres unmarked) [JC-927] | 0 | 100 | 42.4
7 | Cc1ccc(C(=O)NCCO)cc1S(=O)(=O)Nc1ccc(Cl)c(Cl)c1 [JC-864] | −20 | 42 | –
8 | Cc1ccc(C(=O)Nc2ccc(Cl)c(Cl)c2)cc1S(=O)(=O)NCCCNC(=O)Cc1ccccc1 [JC-934] | 11 | 34 | –
9 | Cc1ccc(C(=O)Nc2ccc(Cl)c(Cl)c2)cc1S(=O)(=O)NCc1nc2c(F)c(F)ccc2[nH]1.O=C(O)C(F)(F)F [JC-903] | 11 | 37 | –
10 | Cc1ccc(C(=O)Nc2ccc(Cl)c(Cl)c2)cc1S(=O)(=O)NCCCc1ccccc1 [JC-908] | 18 | 62 | –
11 | COc1ccc(NC(=S)NC2CCN(S(=O)(=O)c3cc(C(=O)Nc4ccc(Cl)c(Cl)c4)ccc3C)CC2)cc1 [JC-1016] | 52 | – | 100
12 | CC(=O)NCCNS(=O)(=O)c1cc(C(=O)Nc2ccc(Cl)c(Cl)c2)ccc1C [JC-919] | −10 | 18 | –
13 | Cc1ccc(C(=O)Nc2ccc(Cl)c(Cl)c2)cc1S(=O)(=O)NC1CC(N)C1 (centres unmarked) [JC-957] | −30 | – | 84
14 | Cc1ccc(C(=O)Nc2ccc(Cl)c(Cl)c2)cc1S(=O)(=O)Nc1cnc2ccccc2c1 [JC-914] | −7 | −3 | –
15 | Cc1ccc(C(=O)Nc2ccc(Cl)c(Cl)c2)cc1S(=O)(=O)N1CCCC(NC(=O)c2ccccc2)C1 (centres unmarked) [JC-931] | 3 | 100 | 98.5
16 | O=C(Nc1ccc(Cl)c(Cl)c1)c1ccc(O)c(S(=O)(=O)Nc2ccc(Cl)c(Cl)c2)c1 [JC-907] | 12 | 5 | –
17 | Cc1ccc(C(=O)Nc2ccc(Cl)c(Cl)c2)cc1S(=O)(=O)NCCNS(=O)(=O)c1cc(C(=O)Nc2ccc(Cl)c(Cl)c2)ccc1C [JC-1021] | 0 | – | −5
18 | Cc1ccc(C(=O)Nc2ccc(Cl)c(Cl)c2)cc1S(=O)(=O)NCCNS(=O)(=O)c1ccc(CBr)cc1 [JC-993] | 76 | – | 100
19 | COc1ccc(NC(=S)NC2CCCN(S(=O)(=O)c3cc(C(=O)Nc4ccc(Cl)c(Cl)c4)ccc3C)C2)cc1 (centres unmarked) [JC-1004] | 32 | – | 94
20 | Cc1ccc(C(=O)Nc2ccc(Cl)c(Cl)c2)cc1S(=O)(=O)N1CCC(NC(=O)CCc2ccccc2)CC1 [JC-968] | 1 | – | 5
21 | Cc1ccc(C(=O)Nc2ccc(Cl)c(Cl)c2)cc1S(=O)(=O)NCCNC(=O)Cc1ccccc1 [JC-953] | −34 | – | 32
22 | Cc1ccc(C(=O)Nc2ccc(Cl)c(Cl)c2)cc1S(=O)(=O)C1CCC(NC(=O)Cc2ccccc2)CC1 (centres unmarked) [JC-926] | −8 | 100 | 28.9
23 | Cc1ccc(C(=O)Nc2ccc(Cl)c(Cl)c2)cc1S(=O)(=O)N1CCC(NS(=O)(=O)c2ccc(COc3ccccc3)cc2)CC1 [JC-1013] | 13 | – | −9
24 | Cc1ccc(C(=O)Nc2ccc(Cl)c(Cl)c2)cc1S(=O)(=O)NCCCNS(=O)(=O)c1ccc(Br)cc1 [JC-998] | 0 | – | 100
25 | Cc1ccc(C(=O)Nc2ccc(Cl)c(Cl)c2)cc1S(=O)(=O)NCCN.O=C(O)C(F)(F)F [JC-918] | −20 | 56 | –
26 | Cc1ccc(C(=O)Nc2ccc(Cl)c(Cl)c2)cc1S(=O)(=O)NCCCCO [JC-895] | 10 | 45 | –
